Laboratory results published in US9828393B2, “Silylalkyloxyaryl compounds and methods for treating cancer” (THE REGENTS OF THE UNIVERSITY OF COLORADO, a body corporate, priority 2013, dated 2017).

Key:
Assay type in all cases: cell-based, human
CCRF-CEM = test: NCI-60 cell line screen (SRB), CCRF-CEM; conditions: Leukemia, 48 h drug incubation, read-out: GI50
Experimental: (§1) Drug sensitivity data are provided as GI50s (concentrations required to inhibit growth by 50%). The first row of the text file identifies cell lines, separated by tabs. Subsequent rows contain compound number, compound name, and GI50 for each cell line, each separated by a tab. […] For a typical screening experiment, cells are inoculated into 96 well microtiter plates in 100 μL at plating densities ranging from 5,000 to 40,000 cells/well depending on the doubling time of individual cell lines. After cell inoculation, the microtiter plates are incubated at 37° C., 5% CO2, 95% air and 100% relative humidity for 24 h prior to addition of experimental drugs. After 24 h, two plates of each cell line are fixed in situ with TCA, to represent a measurement of the cell population for each cell line at the time of drug addition (Tz). Experimental drugs are solubilized in dimethyl sulfoxide at 400-fold the desired final maximum test concentration and stored frozen prior to use. At the time of drug addition, an aliquot of frozen concentrate is thawed and diluted to twice the desired final maximum test concentration with complete medium containing 50 μg/ml gentamicin. Additional four, 10-fold or one-half log serial dilutions are made to provide a total of five drug concentrations plus control. Aliquots of 100 μl of these different drug dilutions are added to the appropriate microtiter wells already containing 100 μl of medium, resulting in the required final drug concentrations. Following drug addition, the plates are incubated for an additional 48 h at 37° C., 5% CO2, 95% air, and 100% relative humidity. For adherent cells, the assay is terminated by the addition of cold TCA. Cells are fixed in situ by the gentle addition of 50 μl of cold 50% (w/v) TCA (final concentration, 10% TCA) and incubated for 60 minutes at 4° C. The supernatant is discarded, and the plates are washed five times with tap water and air dried. Sulforhodamine B (SRB) solution (100 μl) at 0.4% (w/v) in 1% acetic acid is added to each well, and plates are incubated for 10 minutes at room temperature. After staining, unbound dye is removed by washing five times with 1% acetic acid and the plates are air dried. Bound stain is subsequently solubilized with 10 mM trizma base, and the absorbance is read on an automated plate reader at a wavelength of 515 nm. For suspension cells, the methodology is the same except that the assay is terminated by fixing settled cells at the bottom of the wells by gently adding 50 μl of 80% TCA (final concentration, 16% TCA). Using the seven absorbance measurements [time zero, (Tz), control growth, (C), and test growth in the presence of drug at the five concentration levels (Ti)], the percentage growth is calculated at each of the drug concentrations levels. […]

HL-60(TB) = test: NCI-60 cell line screen (SRB), HL-60(TB); conditions: Leukemia; HL-60(TB); 48 h drug incubation; read-out: GI50
Experimental: as §1

MOLT-4 = test: NCI-60 cell line screen (SRB), MOLT-4; conditions: Leukemia; MOLT-4; 48 h drug incubation; read-out: GI50
Experimental: as §1

RPMI-8226 = test: NCI-60 cell line screen (SRB), RPMI-8226; conditions: Leukemia; RPMI-8226; 48 h drug incubation; read-out: GI50
Experimental: as §1

A549/ATCC = test: NCI-60 cell line screen (SRB), A549/ATCC; conditions: Non-Small Cell Lung Cancer; A549/ATCC; 48 h drug incubation; read-out: GI50
Experimental: as §1

NCI-H226 = test: NCI-60 cell line screen (SRB), NCI-H226; conditions: Non-Small Cell Lung Cancer; NCI-H226; 48 h drug incubation; read-out: GI50
Experimental: as §1

NCI-H23 = test: NCI-60 cell line screen (SRB), NCI-H23; conditions: Non-Small Cell Lung Cancer; NCI-H23; 48 h drug incubation; read-out: GI50
Experimental: as §1

NCI-H460 = test: NCI-60 cell line screen (SRB), NCI-H460; conditions: Non-Small Cell Lung Cancer; NCI-H460; 48 h drug incubation; read-out: GI50
Experimental: as §1

NCI-H522 = test: NCI-60 cell line screen (SRB), NCI-H522; conditions: Non-Small Cell Lung Cancer; NCI-H522; 48 h drug incubation; read-out: GI50
Experimental: as §1

[1] = tested on: Non-Small Cell Lung Cancer cell lines; test: NCI-60 cell line screen, Non-Small Cell Lung Cancer panel average; conditions: average over Non-Small Cell Lung Cancer panel; read-out: GI50 Average
Experimental: as §1

HT29 = test: NCI-60 cell line screen (SRB), HT29; conditions: Colon Cancer; HT29; 48 h drug incubation; read-out: GI50
Experimental: as §1

SW-620 = test: NCI-60 cell line screen (SRB), SW-620; conditions: Colon Cancer; SW-620; 48 h drug incubation; read-out: GI50
Experimental: as §1

Colon Cancer cell lines = test: NCI-60 cell line screen, Colon Cancer panel average; conditions: average over Colon Cancer panel; read-out: GI50 Average
Experimental: as §1

SF-539 = test: NCI-60 cell line screen (SRB), SF-539; conditions: CNS Cancer; SF-539; 48 h drug incubation; read-out: GI50
Experimental: as §1

U-251 = test: NCI-60 cell line screen (SRB), U-251; conditions: CNS Cancer; U-251; 48 h drug incubation; read-out: GI50
Experimental: as §1

CNS Cancer cell lines = test: NCI-60 cell line screen, CNS Cancer panel average; conditions: average over CNS Cancer panel; read-out: GI50 Average
Experimental: as §1

LOX IMVI = test: NCI-60 cell line screen (SRB), LOX IMVI; conditions: Melanoma, 48 h drug incubation, read-out: GI50
Experimental: as §1

MDA-MB-435 = test: NCI-60 cell line screen (SRB), MDA-MB-435; conditions: Melanoma; MDA-MB-435; 48 h drug incubation; read-out: GI50
Experimental: as §1

IGROV1 = test: NCI-60 cell line screen (SRB), IGROV1; conditions: Ovarian Cancer; IGROV1; 48 h drug incubation; read-out: GI50
Experimental: as §1

786-0 = test: NCI-60 cell line screen (SRB), 786-0; conditions: Renal Cancer; 786-0; 48 h drug incubation; read-out: GI50
Experimental: as §1

CAKI-1 = test: NCI-60 cell line screen (SRB), CAKI-1; conditions: Renal Cancer; CAKI-1; 48 h drug incubation; read-out: GI50
Experimental: as §1

TK-10 = test: NCI-60 cell line screen (SRB), TK-10; conditions: Renal Cancer; TK-10; 48 h drug incubation; read-out: GI50
Experimental: as §1

PC-3 = test: NCI-60 cell line screen (SRB), PC-3; conditions: Prostate Cancer; PC-3; 48 h drug incubation; read-out: GI50
Experimental: as §1

MDA-MB-231/ATCC = test: NCI-60 cell line screen (SRB), MDA-MB-231/ATCC; conditions: Breast Cancer; MDA-MB-231/ATCC; 48 h drug incubation; read-out: GI50
Experimental: as §1

Molecule `CCOP(=O)(OCC)C(NC(=O)[C@H](Cc1ccc(-c2ccccc2)cc1)NC(=O)c1ccc(OCCC[Si](C)(C)C)cc1)P(=O)(OCC)OCC` [GH1505, N^α-{4-[3-(trimethylsilyl)propoxy]-benzoyl}-N-[bis(dietoxyphosphoryl)methyl]-(4-phenyl-L-phenylalaninamide)] has a GI50 (CCRF-CEM) of 2780 nM, a GI50 (HL-60(TB)) of 2940 nM and a GI50 (MOLT-4) of 2860 nM. For the same molecule, the GI50 (RPMI-8226) was 1970 nM, the GI50 (A549/ATCC) was 2840 nM and the GI50 (NCI-H226) was 1840 nM. It also gave a GI50 (NCI-H23) of 3050 nM, a GI50 (NCI-H460) of 1970 nM and a GI50 (NCI-H522) of 2020 nM. It also gave a GI50 [1] of 2620 nM, a GI50 (HT29) of 2020 nM and a GI50 (SW-620) of 2190 nM. For the same molecule, the GI50 (Colon Cancer cell lines) was 2120 nM, the GI50 (SF-539) was 1820 nM and the GI50 (U-251) was 2090 nM. It also gave a GI50 (CNS Cancer cell lines) of 2010 nM, a GI50 (LOX IMVI) of 1850 nM and a GI50 (MDA-MB-435) of 1900 nM. For the same molecule, the GI50 (IGROV1) was 3220 nM, the GI50 (786-0) was 2760 nM and the GI50 (CAKI-1) was 2900 nM. The GI50 (TK-10) was 2500 nM, the GI50 (PC-3) was 2100 nM and the GI50 (MDA-MB-231/ATCC) was 1620 nM.
